Assay results: patent US20090227507A1, “Angiotensin (1-7) Dosage Forms and Uses Thereof” (UNIVERSITY OF SOUTHERN CALIFORNIA, priority 2008, published 2009)

How the values were obtained:
Format in all cases: in vivo, human
[1] = system: CD8 cells in peripheral blood; assay: Flow cytometry of peripheral blood, CD8 lymphocytes; USB003 SC once daily for 7 days in healthy men; parameters: key to Subjects with shift, Absolute CD8, N-L (normal to low) / Subjects with shift, Absolute CD8, L-N (low to normal) / Subjects with shift, Absolute CD8, H-N (high to normal) / Subjects with shift, Absolute CD8, N-H (normal to high): — signifies subject with no shift from baseline; conditions: for CD8, Absolute, Mean at Baseline: Baseline (Day 1)
Experimental: (§1) • Single-center, randomized, double-blind, placebo-controlled, 2 cohort dose-escalation trial of once daily dosing over a 7-day period (7 doses total): • Cohort 1: 2 subjects treated with placebo and 8 subjects treated with 200 μg/kg USB003 (A(1-7)) • Cohort 2: 2 subjects treated with placebo and 8 subjects treated with 300 μg/kg USB003 • For each cohort, there was a Screening Period, Treatment Phase, Follow-up Period, and Study Termination or Early Withdrawal Day. Subjects were confined to the study unit during the Treatment Phase. • Cohort 2 was treated approximately 1 week after completion of the Treatment Phase for Cohort 1 to allow time for the assessment of safety and tolerability in the first cohort.
(§2) Pharmacological Effect: The following evaluations (under efficacy and safety in the protocol) were performed: • Effects on the number of mature blood cells: • 1. CBC (with differential), platelet count, reticulocyte count. • Effects on early hematopoietic progenitor cells and mature lymphocyte subsets in the periphery: • 1. Flow cytometry to evaluate frequency of peripheral blood progenitor cells (eg, CD34^+) and lymphocyte subsets (eg, CD3, CD4, CD8) in peripheral blood. • 2. Collection of blood for later possible culture for progenitor cells (eg, colony forming units-granulocyte/macrophage [CFU-GM]) to evaluate potential effects on CD34^+ hematopoietic progenitor cells in peripheral blood. • 3.
(§3) The effect of USB003 on the number of mature blood cells was assessed by the complete blood count with differential, platelet and reticulocyte counts. The effects on early hematopoietic progenitor cells and mature lymphocyte subsets in the periphery were assessed by flow cytometry. In addition, blood was collected and processed to enable culture of progenitors at a later time.
(§4) Red blood cell (RBC) count, RBC indices, white blood cell count (WBC) with differential, reticulocyte count, platelet count, hemoglobin (Hb), hematocrit (Hct), plasma hemoglobin, peripheral flow cytometry, including CD34^+, flow cytometry for enumeration of CD3, CD4, and CD8 lymphocytes, and culture for progenitor cells in peripheral blood including colony-forming units-granulocyte/macrophage (CFU-GM).

[2] = 12-lead electrocardiogram in healthy men; conditions: Screening or Study Day 8
Source text: Safety assessments during the study period included vital sign measurement (systolic [SBP] and diastolic [DBP] blood pressure, heart rate [HR], respiratory rate [RR] in the sitting position, and oral temperature), clinical chemistry, hematology, urinalysis, 12-lead electrocardiogram (ECG) in the supine position, and AE monitoring. Clinical chemistry/hematology samples were drawn within a 30-minute period prior to dosing on selected dosing days.

[3] = system: CD34+ cells in peripheral blood; assay: Flow cytometry of peripheral blood, CD34+ progenitor cells; USB003 SC once daily for 7 days in healthy men; parameters: key to Subjects with shift, Absolute CD34, N-L (normal to low) / Subjects with shift, Absolute CD34, N-H (normal to high) / Subjects with shift, Absolute CD34, L-N (low to normal) / Subjects with shift, Absolute CD34, H-N (high to normal): — signifies subject with no shift from baseline; conditions: for CD34^+, Absolute, Mean at Baseline: Baseline (Day 1)
Experimental: as §1, §2, §3, §4

Asp-Arg-Val-Tyr-Ile-His-Pro [USB003]
CD8, Absolute, Mean at Baseline ([1]; 200 μg/kg): 564.6 cells/μL
Subjects with shift, Absolute CD8, H-N (high to normal) ([1]; 200 μg/kg, Baseline to Day 8): —
Subjects with shift, Absolute CD8, L-N (low to normal) ([1]; 200 μg/kg, Baseline to Day 8): —
Subjects with shift, Absolute CD8, N-H (normal to high) ([1]; 200 μg/kg, Baseline to Day 8): 1
Subjects with shift, Absolute CD8, N-L (normal to low) ([1]; 200 μg/kg, Baseline to Day 8): —
Subjects with shift, Absolute CD8, H-N (high to normal) ([1]; 200 μg/kg, Baseline to Day 20): —
Subjects with shift, Absolute CD8, L-N (low to normal) ([1]; 200 μg/kg, Baseline to Day 20): —
Subjects with shift, Absolute CD8, N-H (normal to high) ([1]; 200 μg/kg, Baseline to Day 20): —
Subjects with shift, Absolute CD8, N-L (normal to low) ([1]; 200 μg/kg, Baseline to Day 20): —
CD8, Absolute, Mean Change from Baseline ([1]; 200 μg/kg, Day 3): −34.2 cells/μL
CD8, Absolute, Mean Change from Baseline ([1]; 200 μg/kg, Day 5): 31.9 cells/μL
CD8, Absolute, Mean Change from Baseline ([1]; 200 μg/kg, Day 7): 0.0 cells/μL
CD8, Absolute, Mean Change from Baseline ([1]; 200 μg/kg, Day 8): −3.3 cells/μL
CD8, Absolute, Mean Change from Baseline ([1]; 200 μg/kg, Day 17): −52.8 cells/μL
CD8, Absolute, Mean Change from Baseline ([1]; 200 μg/kg, Day 20): −31.7 cells/μL
CD8, Absolute, Mean at Baseline ([1]; 300 μg/kg): 452.1 cells/μL
Subjects with shift, Absolute CD8, H-N (high to normal) ([1]; 300 μg/kg, Baseline to Day 8): —
Subjects with shift, Absolute CD8, L-N (low to normal) ([1]; 300 μg/kg, Baseline to Day 8): —
Subjects with shift, Absolute CD8, N-H (normal to high) ([1]; 300 μg/kg, Baseline to Day 8): 1
Subjects with shift, Absolute CD8, N-L (normal to low) ([1]; 300 μg/kg, Baseline to Day 8): —
Subjects with shift, Absolute CD8, H-N (high to normal) ([1]; 300 μg/kg, Baseline to Day 20): —
Subjects with shift, Absolute CD8, L-N (low to normal) ([1]; 300 μg/kg, Baseline to Day 20): —
Subjects with shift, Absolute CD8, N-H (normal to high) ([1]; 300 μg/kg, Baseline to Day 20): —
Subjects with shift, Absolute CD8, N-L (normal to low) ([1]; 300 μg/kg, Baseline to Day 20): —
CD8, Absolute, Mean Change from Baseline ([1]; 300 μg/kg, Day 3): 59.5 cells/μL
CD8, Absolute, Mean Change from Baseline ([1]; 300 μg/kg, Day 5): 71.0 cells/μL
CD8, Absolute, Mean Change from Baseline ([1]; 300 μg/kg, Day 7): 93.6 cells/μL
CD8, Absolute, Mean Change from Baseline ([1]; 300 μg/kg, Day 8): 45.1 cells/μL
CD8, Absolute, Mean Change from Baseline ([1]; 300 μg/kg, Day 17): −47.3 cells/μL
CD8, Absolute, Mean Change from Baseline ([1]; 300 μg/kg, Day 20): 26.8 cells/μL
12-lead ECG findings [2]: no abnormal CS 12-lead ECGs findings
CD34^+, Absolute, Mean at Baseline ([3]; 200 μg/kg): 2.50 cells/μL
Subjects with shift, Absolute CD34, H-N (high to normal) ([3]; 200 μg/kg, Baseline to Day 8): —
Subjects with shift, Absolute CD34, L-N (low to normal) ([3]; 200 μg/kg, Baseline to Day 8): —
Subjects with shift, Absolute CD34, N-H (normal to high) ([3]; 200 μg/kg, Baseline to Day 8): —
Subjects with shift, Absolute CD34, N-L (normal to low) ([3]; 200 μg/kg, Baseline to Day 8): —
Subjects with shift, Absolute CD34, H-N (high to normal) ([3]; 200 μg/kg, Baseline to Day 20): —
Subjects with shift, Absolute CD34, L-N (low to normal) ([3]; 200 μg/kg, Baseline to Day 20): —
Subjects with shift, Absolute CD34, N-H (normal to high) ([3]; 200 μg/kg, Baseline to Day 20): —
Subjects with shift, Absolute CD34, N-L (normal to low) ([3]; 200 μg/kg, Baseline to Day 20): —
CD34^+, Absolute, Mean Change from Baseline ([3]; 200 μg/kg, Day 3): 0.23 cells/μL
CD34^+, Absolute, Mean Change from Baseline ([3]; 200 μg/kg, Day 5): 0.61 cells/μL
CD34^+, Absolute, Mean Change from Baseline ([3]; 200 μg/kg, Day 7): 1.11 cells/μL
CD34^+, Absolute, Mean Change from Baseline ([3]; 200 μg/kg, Day 8): 0.33 cells/μL
CD34^+, Absolute, Mean Change from Baseline ([3]; 200 μg/kg, Day 11): 0.13 cells/μL
CD34^+, Absolute, Mean Change from Baseline ([3]; 200 μg/kg, Day 14): 0.61 cells/μL
CD34^+, Absolute, Mean Change from Baseline ([3]; 200 μg/kg, Day 17): −0.40 cells/μL
CD34^+, Absolute, Mean Change from Baseline ([3]; 200 μg/kg, Day 20): −0.46 cells/μL
CD34^+, Absolute, Mean at Baseline ([3]; 300 μg/kg): 2.55 cells/μL
Subjects with shift, Absolute CD34, H-N (high to normal) ([3]; 300 μg/kg, Baseline to Day 8): —
Subjects with shift, Absolute CD34, L-N (low to normal) ([3]; 300 μg/kg, Baseline to Day 8): —
Subjects with shift, Absolute CD34, N-H (normal to high) ([3]; 300 μg/kg, Baseline to Day 8): —
Subjects with shift, Absolute CD34, N-L (normal to low) ([3]; 300 μg/kg, Baseline to Day 8): —
Subjects with shift, Absolute CD34, H-N (high to normal) ([3]; 300 μg/kg, Baseline to Day 20): —
Subjects with shift, Absolute CD34, L-N (low to normal) ([3]; 300 μg/kg, Baseline to Day 20): —
Subjects with shift, Absolute CD34, N-H (normal to high) ([3]; 300 μg/kg, Baseline to Day 20): —
Subjects with shift, Absolute CD34, N-L (normal to low) ([3]; 300 μg/kg, Baseline to Day 20): —
CD34^+, Absolute, Mean Change from Baseline ([3]; 300 μg/kg, Day 3): 1.80 cells/μL
CD34^+, Absolute, Mean Change from Baseline ([3]; 300 μg/kg, Day 5): 0.56 cells/μL
CD34^+, Absolute, Mean Change from Baseline ([3]; 300 μg/kg, Day 7): −0.01 cells/μL
CD34^+, Absolute, Mean Change from Baseline ([3]; 300 μg/kg, Day 8): 0.88 cells/μL
CD34^+, Absolute, Mean Change from Baseline ([3]; 300 μg/kg, Day 11): −0.74 cells/μL
CD34^+, Absolute, Mean Change from Baseline ([3]; 300 μg/kg, Day 14): −0.41 cells/μL
CD34^+, Absolute, Mean Change from Baseline ([3]; 300 μg/kg, Day 17): −0.31 cells/μL
CD34^+, Absolute, Mean Change from Baseline ([3]; 300 μg/kg, Day 20): −0.35 cells/μL
change in the number of CD34+ cells in the peripheral blood ([3]; last day of treatment, not observed 12 days after administration): dose-related change
